Here are results for 73 compounds from ChEMBL document CHEMBL3507680, “University of Dundee, Gates Library screen for HepG2 cell viability”.

Each structure is given as a SMILES string.

The data set is described as follows: Human HepG2 cell viability assay in 384 well format. In kind it is toxicity, cell-based. The arrangement: dose 125 nL, time 70.5 hour; concentration not given beside the values. As to conditions: HepG2 cells, read-out: Inhibition.
Consider `Cc1ccc(C(NC(=O)CCNC(=O)c2ccoc2)C(F)(F)F)cc1` (stereo not drawn), for which the cytotoxicity at 70.5 h is -0.123%.

For the compound `O=C(c1csnn1)N1CCc2ccccc21`, the cytotoxicity at 70.5 h amounted to 2.68%. In the case of `Cc1ncc2c(n1)CCN(Cc1nc(Cc3ccccc3)no1)C2`, the cytotoxicity at 70.5 h came out at 1.16%. As to `Cc1nn(-c2ccccc2)c(C)c1CC(=O)NC1CC(=O)N(C)C1` (stereo not drawn), the cytotoxicity at 70.5 h is -7.27%. As to `COc1ccc(C)cc1CN1CCN(Cc2nccn2C)CC1`, the cytotoxicity at 70.5 h was found to be 1.89%. Consider `FC(F)(F)Sc1ccccc1NCc1nc(C2CC2)no1`, for which the cytotoxicity at 70.5 h was 16.7%. In the case of `COc1ccc(C)cc1CN1CCN(Cc2nccn2C)C(C)C1` (stereo not drawn), the cytotoxicity at 70.5 h was found to be 7.41%. As for `CCC(CC)(CNC(=O)OC(C)(C)C)NC(=O)C1CCOCC1`, the cytotoxicity at 70.5 h was -5.37%. Consider `O=C(NS(=O)(=O)c1cccc(C(F)(F)F)c1)c1cscn1`, for which the cytotoxicity at 70.5 h is -10.3%. On to `CCC(CC)(CNC(=O)OC(C)(C)C)NC(=O)C1CC1`, for which the cytotoxicity at 70.5 h worked out at 16.7%. Next, `COc1cc(CNC2CCCN(c3cccnn3)C2)cc2c1OCO2` (stereo not drawn): -3.66%.

For the compound `Cc1cnn(CCNC(C)C(=O)Nc2ccc(Cl)cn2)c1` (stereo not drawn), the cytotoxicity at 70.5 h was -9.14%.

Take `Cc1cnn(CCNCC(=O)Nc2ccc(Cl)cn2)c1`: the cytotoxicity at 70.5 h is -0.0591%. For the compound `Cc1cc(CNC(=O)NCC(O)c2cccc(C(F)(F)F)c2)no1` (stereo not drawn), the cytotoxicity at 70.5 h worked out at 1.91%. Turning to `COCCNC(=O)NC(c1ccccc1)c1ccccc1OC` (stereo not drawn), the cytotoxicity at 70.5 h was -3.63%.

With `CSc1ccc(NCC(=O)NCC2CC2)cc1F`, the cytotoxicity at 70.5 h is -3.73%. As to `COC(=O)c1cc(NC2CCN(CC(F)(F)F)C2=O)ccc1C` (stereo not drawn), the cytotoxicity at 70.5 h was -1.18%. With `CC(=O)N(Cc1ncc(C)o1)C1CCN(Cc2cnc(C)s2)C1` (stereo not drawn), the cytotoxicity at 70.5 h was -6.82%. For the compound `CN(C)C(CNC(=O)NCCS(C)(=O)=O)c1ccco1` (stereo not drawn), the cytotoxicity at 70.5 h was -4.23%.

In the case of `CC(=O)N(Cc1ncc(C)o1)C1CCN(CCn2cccn2)C1` (stereo not drawn), the cytotoxicity at 70.5 h is 9.96%.

Turning to `CCN(C(=O)CN1CCn2c(C)nnc2C1)C1=CCCCC1`, the cytotoxicity at 70.5 h was -17%. Turning to `CCN(C(=O)CN1CCn2c(nnc2C2CC2)C1)C1=CCCCC1`, the cytotoxicity at 70.5 h was -14.8%. As to `O=C(NCc1cccnc1-n1cncn1)c1ccncc1`, the cytotoxicity at 70.5 h was -4.72%.

For the compound `O=S(=O)(c1c(F)cccc1F)N1CCCC1c1nnc2n1CCCCC2` (stereo not drawn), the cytotoxicity at 70.5 h is -12.1%. Next, `O=C(CCn1ccccc1=O)Nc1ccc(C(=O)O)cc1`: -4.88%; `Cn1nnnc1SC1CCCN(c2cccc(F)c2)C1=O` (stereo not drawn): 19.4%; `CCc1nnc(SC2CCCN(c3cccc(F)c3)C2=O)n1C` (stereo not drawn): -8.7%. On to `CN1CCN(CC(NCc2cccc(O)c2)c2ccccc2)CC1` (stereo not drawn), for which the cytotoxicity at 70.5 h was -5.45%. As to `CCn1cc(NC(=O)C2CCN(Cc3ccccc3)CC2)cn1`, the cytotoxicity at 70.5 h came out at 2.21%. For the compound `COc1ccc2oc(C(C)NC(=O)NCC(C)(C)C(N)=O)c(C)c2c1` (stereo not drawn), the cytotoxicity at 70.5 h worked out at 23.4%. For `CCCN(C(=O)CN1CCn2c(nnc2C2CC2)C1)C1=CCCCC1` the value was -13.5%.

Take `Cc1cc(C)n(-c2cncc(NCCC(=O)NC(C)C)n2)n1`: the cytotoxicity at 70.5 h was -10.2%. For the compound `Cc1cccc2nc(CNC(=O)N3CCC(OCC4CC4)CC3)cn12`, the cytotoxicity at 70.5 h was 24.4%.

Regarding `O=C(Nc1nc(-c2ccccc2)ns1)N1CC[C@H](O)C1`, the cytotoxicity at 70.5 h is -9.25%. With `CNC(=O)CC1CCN(C(=O)NCc2cn3c(C)cccc3n2)CC1`, the cytotoxicity at 70.5 h was -14.3%. For the compound `FC(F)(F)C1CCc2nnc(CNCc3cccs3)n2C1` (stereo not drawn), the cytotoxicity at 70.5 h turned out to be 24.7%. For `CCn1cc(NC(=O)C2CCN(Cc3nc(C)c(C)s3)CC2)cn1` the value was -5.47%. Regarding `O=C(c1cn(-c2cccc(Cl)c2F)nn1)N1CCCSCC1`, the cytotoxicity at 70.5 h is -13.2%. Turning to `Cc1cnc(CN(C)Cc2cc3c(cc2OC(F)F)OCO3)o1`, the cytotoxicity at 70.5 h turned out to be 0.766%. For the compound `Cc1cc(CN(C)S(=O)(=O)N2CCCC2c2ccc(C)o2)no1` (stereo not drawn), the cytotoxicity at 70.5 h is -9.33%. In the case of `CN1CCN(CC(NCc2ccc(F)cc2)c2ccccc2)CC1` (stereo not drawn), the cytotoxicity at 70.5 h turned out to be 17.2%. Next, `Cc1cnc(CN(C)C2CCN(Cc3ccc(Cl)s3)C2)o1` (stereo not drawn): -15.5%; `Cc1cnc(CN(C)C2CCN(Cc3sc(C)nc3C)C2)o1` (stereo not drawn): 29.7%; `CN1CCN(CC(NCc2ccc(F)c(F)c2)c2ccccc2)CC1` (stereo not drawn): 5.13%. For `Cc1cnc(CN(C)C2CCN(Cc3cnc(C)s3)C2)o1` (stereo not drawn) the value was -8.23%; for `N#Cc1cccc(CNC(=O)C2=NN(c3ccccc3)C(=O)CN2)c1`, 9.97%.

Consider `N#Cc1ccc(CNC(=O)C2=NN(c3ccccc3)C(=O)CN2)cc1`, for which the cytotoxicity at 70.5 h was -7.68%. As to `O=C(CNc1cccc2c1CCCC2)Nc1ccccc1Br`, the cytotoxicity at 70.5 h was found to be 2.61%. In the case of `Cc1nn(C)c(N(C)C)c1CNCc1cccc(Cn2cccn2)c1`, the cytotoxicity at 70.5 h was 9.51%. For `Cc1nn(C)c(N(C)C)c1CNCc1cccc(Br)c1` the value was -5.91%.

Turning to `Cc1cccn2c(=O)cc(CN3CCCC3Cn3cncn3)nc12` (stereo not drawn), the cytotoxicity at 70.5 h is -5.2%. In the case of `CN1CC(C(=O)NC(C)(C)CNC(=O)OC(C)(C)C)CC1=O` (stereo not drawn), the cytotoxicity at 70.5 h was found to be 9.2%. Turning to `Cc1cnn(CC2CCCN2Cc2cc(=O)n3c(C)csc3n2)c1` (stereo not drawn), the cytotoxicity at 70.5 h was -4.63%. With `Cc1nc(CN2CCN(C(=O)Cc3cccc(Cl)c3)CC2)no1`, the cytotoxicity at 70.5 h is -5.05%. For `CC(C)Oc1ccc(C(=O)Cn2cnnc2[S+](C)[O-])cc1` (stereo not drawn) the value was -7.07%; for `C[S+]([O-])c1nncn1CC(=O)c1ccc(OC(F)F)cc1` (stereo not drawn), -2.01%. `O=S(=O)(c1ccc(F)cc1)N1CCN(CCCn2ccnc2)CC1`: the cytotoxicity at 70.5 h was -1.51%. For `CCN1CCN(Cc2nc(C)no2)CC1`, the cytotoxicity at 70.5 h was 12.7%. On to `C[S+]([O-])c1nncn1CC(=O)c1cccc(C(F)(F)F)c1` (stereo not drawn), for which the cytotoxicity at 70.5 h is -1.93%. For `CCN1CC(C(=O)NC(C)(C)CC)CC1=O` (stereo not drawn), the cytotoxicity at 70.5 h is -3.27%.

Take `CC(C)(C)OC(=O)NCC1CCCCN1Cc1ccccn1` (stereo not drawn): the cytotoxicity at 70.5 h was 1.05%. `COC(C(=O)N1CCN(Cc2noc(C)n2)CC1)c1ccccc1` (stereo not drawn): the cytotoxicity at 70.5 h is -3.29%. Regarding `Cc1cccn2c(=O)cc(CN3CCCC3Cn3cccn3)nc12` (stereo not drawn), the cytotoxicity at 70.5 h is -1.74%. Take `Cc1ccc(S(=O)(=O)N2CCN(CCCn3ccnc3)CC2)cc1`: the cytotoxicity at 70.5 h is -1.75%. For `Cc1cnc(CN2CCC(N(C)Cc3nnc(C)n3C)C2)cn1` (stereo not drawn), the cytotoxicity at 70.5 h is -0.164%.

As to `CCCN1CCC(NCc2ccncc2)CC1`, the cytotoxicity at 70.5 h was -5.69%.

Regarding `Cc1ccc(NC(=O)c2nc(N3CCCCC3)ncc2Cl)cc1I`, the cytotoxicity at 70.5 h is -7.45%.

In the case of `COc1cc(CN(C)C(=O)NCc2cccnc2OC)ccc1SC`, the cytotoxicity at 70.5 h is -0.299%. Regarding `Cc1ccc(C(=O)NCCCN(C)S(C)(=O)=O)c(=O)[nH]1`, the cytotoxicity at 70.5 h is -5.2%. For `O=C(c1cc2c([nH]c1=O)CCC2)N1CCCCCC1c1ccncc1` (stereo not drawn) the value was -6.24%. Take `COc1cc(CN(C)C(=O)NCc2ccccn2)ccc1SC`: the cytotoxicity at 70.5 h amounted to 15.9%. For `COc1cc(CN(C)C(=O)NC2CC2)ccc1SC`, the cytotoxicity at 70.5 h was -3.48%.

As for `COc1cc(CN(C)C(=O)NCC(=O)NC(C)C)ccc1SC`, the cytotoxicity at 70.5 h was -1.54%.
